According to ChEMBL document CHEMBL6182943, “Identification of 4'-Thiouridine as an Orally Available Antiviral Agent Targeting Both RdRp and NiRAN Functions of SARS-CoV-2 Nsp12” (J Med Chem, 2025):
Active and inactive are the calls of the source. The calls are words filed in the database; no cut-off is given here.

Assays:
SARS-CoV-2 [1] = test: Antiviral activity against SARS-CoV-2 infected in african green monkey Vero cells assessed as reduction in number of spike-protein expressing cells pre-infected for 30 mins followed by compound addition and measured 48 hrs post-infection by DAPI staining based immunofluorescence analysis; assay type: functional, organism-based; conditions: Severe acute respiratory syndrome coronavirus 2, Vero
[2] = Cytotoxicity against African green monkey Vero cells assessed as reduction in cell viability incubated for 48 hrs by MTT assay; assay type: toxicity, cell-based; conditions: chlorocebus sabaeus
[3] = Selectivity index, ratio of CC50 for cytotoxicity against African green monkey Vero cells to EC50 for antiviral activity against SARS-CoV-2 infected in african green monkey Vero cells assessed as reduction in number of spike-protein expressing cells; assay type: toxicity, cell-based; conditions: read-out: Ratio CC50/EC50
[4] = molecular target: Replicase polyprotein 1ab (Severe acute respiratory syndrome coronavirus 2) (UniProt P0DTD1); test: (§1) Inhibition of SARS-CoV-2 Nsp12-Nsp7-Nsp8-2 RNA dependent RNA polymerase activity using partially double stranded RNA as substrate assessed as generation of abortive transcripts by mis-incorporation into RNA at 100 uM incubated for 30 mins in presence of UTP by gel electrophoresis based primer extension assay
[5] = molecular target: Replicase polyprotein 1ab (Severe acute respiratory syndrome coronavirus 2) (UniProt P0DTD1); test: (§2) Inhibition of SARS-CoV-2 Nsp12-Nsp7-Nsp8-2 RNA dependent RNA polymerase activity using partially double stranded RNA as substrate assessed as reduction in RNA elongation at 1 to 100 uM incubated for 30 mins in presence of UTP and GTP/CTP by gel electrophoresis based primer extension assay; conditions: dose 1-100 µM
[6] = molecular target: Replicase polyprotein 1ab (Severe acute respiratory syndrome coronavirus 2) (UniProt P0DTD1); test: as §2, with “as accumulation of abortive transcripts” for “as reduction in RNA elongation”, “at 2.5” for “at 1”, “to 250” for “to 100”, “of UTP,ATP” for “of UTP”; conditions: dose 2.5-250 µM
[7] = molecular target: Replicase polyprotein 1ab (Severe acute respiratory syndrome coronavirus 2) (UniProt P0DTD1); test: as §1, with “ATP” for “UTP”
[8] = molecular target: Replicase polyprotein 1ab (Severe acute respiratory syndrome coronavirus 2) (UniProt P0DTD1); test: as §1, with “as” for “as generation of abortive transcripts by”, “by measuring increase in abortive transcripts length” for “at 100 uM”, “ATP” for “UTP”; conditions: dose 1-100 µM
[9] = molecular target: Replicase polyprotein 1ab (Severe acute respiratory syndrome coronavirus 2) (UniProt P0DTD1); test: Inhibition of SARS-CoV-2 Nsp12-Nsp7-Nsp8-2 RNA dependent RNA polymerase activity using partially double stranded RNA as substrate assessed as accumulation of abortive transcripts incubated for 30 mins in presence of UTP,ATP and GTP/CTP by gel electrophoresis based primer extension assay; conditions: dose 2.5-250 µM
[10] = test system: Severe acute respiratory syndrome coronavirus 2; test: Inhibition of SARS-CoV-2 Nsp9/Nsp12 using 5'-pppLS10 as substrate assessed as inhibition of NiRAN-mediated RNAylation of Nsp9 by measuring increase in compound-conjugated Nsp9 incubated for 1 hrs by coomassie blue staining based SDS-PAGE analysis; conditions: dose 1-100 µM
[11] = test system: Severe acute respiratory syndrome coronavirus 2; test: Inhibition of SARS-CoV-2 Nsp9/Nsp12 using 5'-pppLS10 as substrate assessed as inhibition of NiRAN-mediated AMPylation of Nsp9 at 1 to 100 uM preincubated for 5 mins followed by ATP and [alpha-32P]ATP addition and measured after 10 mins by phosphorimaging based SDS-PAGE analysis; conditions: dose 1-100 µM, time 15.0 min
[12] = test system: Severe acute respiratory syndrome coronavirus 2; test: Inhibition of SARS-CoV-2 Nsp9/Nsp12 using 5'-pppLS10 as substrate assessed as inhibition of NiRAN-mediated UMPylation of Nsp9 at 1 to 100 uM preincubated for 5 mins followed by UTP and [alpha-32P]UTP addition and measured after 10 mins by phosphorimaging based SDS-PAGE analysis; conditions: dose 1-100 µM, time 15.0 min
SARS-CoV-2 [13] = test: (§3) Antiviral activity against SARS-CoV-2 infected in hACE2 expressing female B6.Cg-Tg(K18-ACE2)2Prlmn/J mouse model assessed as reduction in body weight loss at 50 mg/kg, po preadministered twice daily for 4 days at 8 hrs interval with four hours before and after viral challenge and measured 8 days post viral challenge; assay type: functional, organism-based; conditions: Severe acute respiratory syndrome coronavirus 2, time 8.0 day
SARS-CoV-2 [14] = test: Antiviral activity against SARS-CoV-2 infected in hACE2 expressing female B6.Cg-Tg(K18-ACE2)2Prlmn/J mouse model assessed as survival at 50 mg/kg, po preadministered twice daily for 4 days at 8 hrs interval with four hours before and after viral challenge and measured 14 days post viral challenge relative to control; assay type: functional; conditions: Severe acute respiratory syndrome coronavirus 2, 336 h, time 14 day
SARS-CoV-2 [15] = test: as §3, with “measured 14” for “measured 8”; assay type: functional, organism-based; conditions: Severe acute respiratory syndrome coronavirus 2, time 14.0 day
[16] = test system: Severe acute respiratory syndrome coronavirus 2; test: Inhibition of SARS-CoV-2 Nsp9/Nsp12 using 5'-pppLS10 as substrate assessed as inhibition of NiRAN-mediated RNAylation of Nsp9 by measuring increase in compound-conjugated Nsp9 at 1 to 100 uM incubated for 1 hrs by coomassie blue staining based SDS-PAGE analysis; conditions: dose 1-100 µM
SARS-CoV-2 [17] = test: Antiviral activity against SARS-CoV-2 infected in African green monkey Vero cells assessed as reduction in viral N protein level at 0.1 uM measured after 1 day by Western blot analysis; assay type: functional, organism-based; conditions: Severe acute respiratory syndrome coronavirus 2
[18] = molecular target: Replicase polyprotein 1ab (Severe acute respiratory syndrome coronavirus 2) (UniProt P0DTD1); test: as §1, with “ATP and GTP/CTP” for “UTP”
[19] = molecular target: Replicase polyprotein 1ab (Severe acute respiratory syndrome coronavirus 2) (UniProt P0DTD1); test: as §1, with “UTP and GTP/CTP” for “UTP”

Row | Structure (SMILES) | EC50 (SARS-CoV-2 [1]) [µM] | CC50 at 48 h [2] [µM] | selectivity ratio [3] | other results
1 | CC(C)C(=O)OC[C@H]1S[C@@H](n2ccc(=O)[nH]c2=O)[C@H](O)[C@@H]1O | 26.8 | > 100 | > 3.73 | 
2 | Cc1cn([C@@H]2S[C@H](CO)[C@@H](O)[C@H]2O)c(=O)[nH]c1=O | > 100 | > 100 |  | 
3 | N#C[C@@]1(c2ccc3c(N)ncnn23)O[C@H](COP(=O)(O)OP(=O)(O)OP(=O)(O)O)[C@@H](O)[C@H]1O |  |  |  | inhibition ([4]; dose 100.0 µM, time 30.0 min): Not active; Formation Of 27-Mer Product Observed; inhibition [5]: Not active; Formation Of Full-Length 40-Mer Product Is Still Prevented; inhibition [6]: Minimal_effect
4 | O=c1ccn([C@@H]2S[C@H](COP(=O)(O)OP(=O)(O)OP(=O)(O)O)[C@@H](O)[C@H]2O)c(=O)[nH]1 |  |  |  | inhibition ([7]; 100 uM): Active; Compound Led To Rna Products Longer Than 20 Nucleotides But Did Not Reach 27-Mer Rna; inhibition [8]: Dose-dependent-effect; Transcripts Remained Below 27 Nucleotides; inhibition [9]: Dose-dependent-effect; inhibition [10]: Dose-dependent-effect; inhibition [11]: Active; inhibition [12]: Active
5 | Nc1ncnc2c1ncn2[C@@H]1S[C@H](CO)[C@@H](O)[C@H]1O | 8.82 | 94.3 | 10.7 | 
6 | Nc1nc2c(ncn2[C@@H]2S[C@H](CO)[C@@H](O)[C@H]2O)c(=O)[nH]1 | 48.3 | > 100 | > 2.07 | 
7 | Nc1ccn([C@@H]2S[C@H](CO)[C@@H](O)[C@H]2O)c(=O)n1 | 2.4 | > 100 | > 41.7 | 
8 | CC(C)C(=O)OC[C@H]1O[C@@H](n2cc/c(=N\O)[nH]c2=O)[C@H](O)[C@@H]1O [MOLNUPIRAVIR] |  |  |  | Activity (SARS-CoV-2 [13]): Active; survival at 50 mg/kg (SARS-CoV-2 [14]): 60%; Activity (SARS-CoV-2 [15]): Active
9 | C[C@@]1(F)[C@H](O)[C@@H](COP(=O)(O)OP(=O)(O)OP(=O)(O)O)O[C@H]1n1cnc2c(=O)[nH]c(N)nc21 |  |  |  | inhibition [16]: Active
10 | O=c1nc(NO)ccn1[C@@H]1O[C@H](CO)[C@@H](O)[C@H]1O [N-HYDROXYCYTIDINE] | 1.03 | 38.6 | 37.5 | Activity (SARS-CoV-2 [17]): Active
11 | CC(C)OC(=O)[C@H](C)N[P@](=O)(OC[C@H]1S[C@@H](n2ccc(=O)[nH]c2=O)[C@H](O)[C@@H]1O)Oc1ccccc1 | > 100 | > 100 |  | 
12 | C[C@@]1(F)[C@H](O)[C@@H](COP(=O)(O)OP(=O)(O)OP(=O)(O)O)O[C@H]1n1ccc(=O)[nH]c1=O |  |  |  | inhibition ([7]; dose 100.0 µM, time 30.0 min): inactive; inhibition [18]: inactive
13 | C[C@H](Cn1cnc2c(N)ncnc21)OCP(=O)(O)OP(=O)(O)OP(=O)(O)O |  |  |  | inhibition ([4]; 100 uM): Active; Compound Produced A Primer Extension Of ~22 Nucleotides Similar To Atp Starvation Condition; inhibition [19]: Active; Compound Produced A Primer Extension Of ~22 Nucleotides Similar To Atp Starvation Condition
